Five molecules from patent US5559213A, “Polyethylene-protein conjugates” (Hoffmann-La Roche Inc., priority 1995, dated 1996) can be followed below.

Series [1] has as its target T1, IL-1 receptor on EL-4 membranes (Mus musculus, UniProt P13504).
T1 construct: incubated at varying concentrations with EL-4 membranes; endogenous in cells; host or cells: EL-4 cell membranes
T1 sequence (P13504 20-576): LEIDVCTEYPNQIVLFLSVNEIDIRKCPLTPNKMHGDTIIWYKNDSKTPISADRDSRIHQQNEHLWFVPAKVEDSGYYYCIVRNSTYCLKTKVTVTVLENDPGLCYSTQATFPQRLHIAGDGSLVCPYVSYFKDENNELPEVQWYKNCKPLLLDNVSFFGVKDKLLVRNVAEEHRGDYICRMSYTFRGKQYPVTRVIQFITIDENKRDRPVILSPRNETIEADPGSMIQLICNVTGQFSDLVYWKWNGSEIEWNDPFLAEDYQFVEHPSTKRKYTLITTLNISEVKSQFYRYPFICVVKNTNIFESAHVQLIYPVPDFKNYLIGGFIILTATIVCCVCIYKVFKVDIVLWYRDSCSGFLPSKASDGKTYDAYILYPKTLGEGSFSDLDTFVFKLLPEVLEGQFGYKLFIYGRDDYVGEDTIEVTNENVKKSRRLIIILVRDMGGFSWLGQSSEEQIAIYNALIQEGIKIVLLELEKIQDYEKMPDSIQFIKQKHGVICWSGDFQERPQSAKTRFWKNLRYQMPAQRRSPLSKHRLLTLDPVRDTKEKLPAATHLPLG
Briefly: IL-1 radioreceptor competition binding assay. The procedure:
Pegylated IL-1ra was purified from the reaction mixture using hydrophobic exchange chromatography (Bio-Rad; HRLC MP7 HlC). A linear gradient with decreasing salt concentrations from 0.43 to 0.0M (NH4)2 SO4 in 50 mM sodium phosphate pH 7.0 in 20 minutes was used to separate pegylated IL-1ra and unmodified IL-1ra. Aliquots of fractions were evaluated by SDS-PAGE and pooled fractions were assayed in an IL-1 radioreceptor competition binding assay. [Kilian et al. J. Immunol., 136, 4509, (1986)]. Briefly, IL-1ra and PEG-IL-1ra were incubated at varying concentrations with EL-4 membranes for 30 min at 37° C. The [^125 I]IL-1 alpha was then added and the incubation continued for 30 min. The assay was terminated by vacuum filtration and the collection of cell bound [^125 I]IL-1 on filter plates. The concentration of IL-1ra or PEG-IL-1ra that inhibits binding of [^125l]IL- 1 by 50% (IC50) was determined graphically. […] The pegylated IL-1ra mixture retained its ability-to bind to the IL-1 receptor on EL-4 membranes within a factor 2 to 3 fold relative to the unmodified II1-1ra.

In a further series the test system is D10 cell. The experiment in a line: D10 cell proliferation assay (specific activity of rIL-1 alpha). Format: cell-based. To be noted: for Specific Activity: label = apparent molecular weight (kD). The procedure:
Pegylated rIL-1 alpha was purified from the reaction mixture after 60 minutes using hydrophobic exchange chromatography (Bio-Rad; HRLC. MP7 HlC). A linear gradient with decreasing salt concentration from 0.43 to 0.0M (NH4)2 SO4 in 50 mM sodium phosphate pH 7.0 in 20 minutes was used to separate pegylated rIL-1 alpha and unmodified rIL-1 alpha. Aliquots of fractions were evaluated by SDS-PAGE and pooled fractions were assayed for specific activity in a D10 cell proliferation assays by the method described by Kaye et al. [J. Exp. Med. 158:836, (1983)]. Protein concentrations were determined spectrophotometrically at […] using an extinction coefficient of 1.0 for rIL-1 alpha. The specific activity of the rIL-1 alpha is approximately 1.0×10^8 units/mg. The 26 kD pegylated IL-1 alpha conjugate retains bioactivity within 2-3 fold of relative to IL-1 alpha.

A further series relates to CTLL cell. Briefly: CTLL cell proliferation assay (specific activity of rIL-2). Conditions: Example 3, Table III: rIL-2 conjugated to PEG with reagent of Example 1; label = apparent molecular weight (kD). Format: cell-based. The procedure:
Acad. Sci., USA, 84:1483, (1987)] using hydrophic exchange chromatography (Bio-Rad; Biogel-phenyl 5-PW). […] Aliquots of the fractions were evaluated by SDS-PAGE and pooled fractions were assayed to determine its specific activity in a CTLL cell proliferation assay by the method described by Gillis et al. [J. Immunology 120:2027, (1978)].

The next series has as its system MDBK. The experiment in a line: Anti-viral activity (specific activity) in an MDBK assay. Format: cell-based. Conditions: label = apparent molecular weight (kD). The procedure:
The predominant molecular weight species from the reaction mixture were identified by SDS-PAGE with apparent molecular weights of 15 (unmodified),and 28 kD. The 28 kD pegylated protein accounted for 40% of the, total protein. The pegylated IFN-alpha was purified from the 60 minute reaction mixture and characterized using hydrophobic exchange chromatography (Bio-Rad; Biogel-phenyl-S-PW). A linear gradient with decreasing salt concentrations from 0.42M to 0.0M (NH4)2 SO4 in 50 mM sodium phosphate pH 7.0 in 20 minutes was used to separate pegylated IFN-alpha and unmodified IFN-alpha. Aliquots of the fractions were evaluated by SDS-PAGE and pooled fractions were assayed for anti-viral activity (specific activity) in an MDBK assay by the method described in by Familletti, et al. [Methods Enzym. 78,387 (1987)].
Protein concentrations were determined spectrophotometrically at […] using an extinction coefficient of 1.0 for a 1 mg/ml IFN-alpha buffered solution.

Series [2] deals with rIL-1alpha induction of interleukin-6. Briefly: Inhibition of rIL-1alpha induction of interleukin-6 in mice (pharmacodynamics). Type of series: in vivo. The procedure: The pharmacodynamics of IL-1ra protein was evaluated in vivo by the ability of the IL-1ra to inhibit rIL-1alpha induction of interleukin-6. Serum from mice treated with rIL-1alpha contain high levels of IL-6, [McIntosh et al., Immunol. 143: 162, (1989)]. The administration of unmodified IL-1ra together with IL-1alpha (0 hr time point) inhibits the induction of IL-6. This test system was used to compare the pharmacodynamic properties of unmodified and PEG IL-1ra. […] Three hours later, serum samples were collected. IL-6 levels (units) were determined using a modification of an IL-6 assay that has been previously described [Van Snick et al., Proc. Natl. Acad. Sci. USA 83:9679, (1986)]. In the IL.-6 assay, B9 hybridoma cells were treated with two fold serial dilutions of the test sera in 96-well microtiter plates. Following a 3 day incubation at 37° C. in a humidified atmosphere comprised of 5% CO2 and 95% air, the wells were pulsed with 0.5 uCi of tritiated thymidine and incubated for an additional 18 hr. The cells were then harvested onto glass fiber filters and the level of tritiated thymidine incorporation was determined by scintillation counting. IL-6 activity is expressed as U/ml. IL-6 units are defined as the inverse of the serum dilution which produces half-maximal tritiated thymidine incorporation compared to a reference standard.

The mark [3] stands for this setting: Example 7, Table VIII: rIL-1 alpha conjugated with reagent of Example 5.

With “alpha-[2-[[(2-Pyridinyloxy)carbonyl]amino]ethyl]omega-[2-[[(2-pyridinyloxy)carbonyl]amino]-ethoxy]poly(oxy-1,2-ethanediyl) SRU 180 [Example 33]”, the IC50 turned out to be 9.0 ng/mL in series [1] (Example 6A, Table VII: IL-1ra conjugated with reagent of Example 5a, label = apparent molecular weight (kD)); 6.0 ng/mL in series [1] (Example 12A, Table XIII: IL-1ra pegylated with reagent of Example 11a, label = apparent molecular weight (kD)); 30.0 ng/mL in series [1] (Example 19, Table XIV: IL-1ra pegylated with reagent of Example 18, label = apparent molecular weight (kD)); 9.0 ng/mL in series [1] (Example 19A, Table XV: IL-1ra pegylated with reagent of Example 18a, label = apparent molecular weight (kD)); 5.0 ng/mL in series [1] (Example 29, Table XX: IL-1ra pegylated with reagent of Example 28, label = molecular weight (kD)). Further, the “Specific Activity” value in the series on D10 cell (setting [3]) is recorded as 4.5 × 10^6 units/mg.

Turning to “alpha-[(2-Pyridinyloxy)thiocarbonyl]-omega-methoxypoly (oxy-1,2-ethanediyl) SRU 225 [Example 28]”, the 50% inhibitory concentration (IC50) in series [1] (Example 12, Table XII: IL-1ra pegylated with reagent of Example 11, label = apparent molecular weight (kD)) turned out to be 3.0 ng/mL. In addition, the “Specific Activity” value in the series on CTLL cell is listed as 2.4 × 10^7 units/mg; in the series with MDBK (Example 8, Table IX: IFN-alpha conjugated with reagent of Example 5), 1.4 × 10^8 units/mg; with MDBK (Example 20, Table XVI: IFN-alpha conjugated with reagent of Example 18), 8.0 × 10^7 units/mg.

For “rIL-1 alpha: Recombinant Interleukin 1-alpha, unmodified; apparent molecular weight 17 kD by SDS-PAGE”, the “Specific Activity” value in the series with D10 cell (setting [3]) is listed as 4.6 × 10^7 units/mg; in the series with D10 cell (Example 27, Table XIX: rIL-1 alpha conjugated to PEG with reagent of Example 23) it was 1.1 × 10^8 units/mg. In the series on D10 cell (general statement, Example 7), the “specific activity of the rIL-1 alpha” value is “approximately 1.0×10^8 units/mg”. The “IL-6 in mice treated only with IL-1” value in series [2] (Example 6 experiment, 0.2 ug rIL-1 alpha, serum three hours later) is 28852 U/ml. Also, in series [2] (Example 12 experiment), the “IL-6 induced by IL-1 alone” value amounted to 27283 u/ml. In series [2] (Example 19A experiment, 0.05 ug rIL-1 alpha), the “IL-6 response to IL-1 alone” value is 9203 units/ml.

B1: 26 kD rIL-1 alpha (Example 7): rIL-1 alpha pegylated with the reagent of Example 5; apparent molecular weight 26 kD (conjugate, UniProt P01583 113-271, looked up)
Interleukin-1 alpha: SAPFSFLSNVKYNFMRIIKYEFILNDALNQSIIRANDQYLTAAALHNLDEAVKFDMGAYKSSKDDAKITVILRISKTQLYVTAQDEDQPVLLKEMPEIPKTITGSETNLLFFWETHGTKNYFTSVAHPNLFIATKQDYWVCLAGGPPSITDFQILENQA
modifications: PEG conjugate
notes: apparent molecular weight 26 kD
B1: the “bioactivity relative to IL-1 alpha” value in the series on D10 cell (Example 7) is given as 2-3 fold.

B2: 33 kD rIL-1 alpha (Example 7): rIL-1 alpha pegylated with the reagent of Example 5; apparent molecular weight 33 kD (conjugate, UniProt P01583 113-271, looked up)
Interleukin-1 alpha: B1 Interleukin-1 alpha
modifications: PEG conjugate
notes: apparent molecular weight 33 kD
On to B2, for which the “bioactivity relative to IL-1 alpha” value in the series on D10 cell (Example 7) is “substantial loss of bioactivity”.
